Data reported in US9133115B2 (ACHILLION PHARMACEUTICALS, INC., priority 2008, dated 2015).

System: HCV replicon
Assay: HCV replicon replication assay (NPT ELISA) in Huh-7 replicon-containing cells
Format: cell-based
Details: Hepatitis C virus, 72 h; HCV replicon in Huh-7 cells, three days incubation; read-out: EC50
Outline: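 Huh-7 cells carrying a bicistronic HCV replicon (HCV-IRES-neo, EMCV-IRES-driven NS3–NS5B, 3′-NTR) were seeded at 6000-7500 cells/well, grown 24 h to 60-70% confluence, then treated with graded compound concentrations. Replication was read as NPT level by capture ELISA (rabbit anti-NPTII, Eu-N1 secondary); interferon alpha served as positive control.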

First: C=C[C@@H]1C[C@]1(NC(=O)[C@@H]1C[C@H](Oc2cc(-c3ccccc3)nc3cc(OC)ccc23)CN1C(=O)[C@@H](CC(=O)N1CCCCC1)C(C)(C)C)C(=O)NS(=O)(=O)C1CC1 [Compound 132, (2S,4S)-1-((S)-2-tert-butyl-4-oxo-4-(piperidin-1-yl)butanoyl)-N-((1R,2S)-1-(cyclo-propylsulfonyl-carbamoyl)-2-vinylcyclopropyl)-4-(7-methoxy-2-phenylquinolin-4-yloxy)pyrrolidine-2-carboxamide]
Second: C=C[C@@H]1C[C@]1(NC(=O)[C@@H]1C[C@@H](Oc2cc(-c3ccccc3)nc3cc(OC)ccc23)CN1C(=O)[C@H](CC(=O)N1CCCCC1)C(C)(C)C)C(=O)NS(=O)(=O)C1CC1 [Compound 134, (2S,4R)-1-((R)-2-tert-butyl-4-oxo-4-(piperidin-1-yl)butanoyl)-N-((1R,2S)-1-(cyclo-propylsulfonyl-carbamoyl)-2-vinylcyclopropyl)-4-(7-methoxy-2-phenylquinolin-4-yloxy)pyrrolidine-2-carboxamide]
The EC50 of the first is lower: less than 1000 nM for the first, 1000 to 10000 nM for the second.

Compared with `C=C[C@@H]1C[C@]1(NC(=O)[C@@H]1C[C@@H](Oc2nc3ccccc3nc2-c2ccccc2)CN1C(=O)[C@@H](CC(=O)N1CCCCC1)C(C)(C)C)C(=O)NS(=O)(=O)C1CC1` [Compound 133, (2S,4R)-1-((S)-2-tert-butyl-4-oxo-4-(piperidin-1-yl)butanoyl)-N-((1R,2S)-1-(cyclo-propylsulfonyl-carbamoyl)-2-vinyl-cyclopropyl)-4-(3-phenylquinoxalin-2-yloxy)pyrrolidine-2-carboxamide], `C=C[C@@H]1C[C@]1(NC(=O)[C@@H]1C[C@@H](n2nc(-c3ccccc3)c(-c3ccccc3)n2)CN1C(=O)[C@@H](CC(=O)N1CCCCC1)C(C)(C)C)C(=O)NS(=O)(=O)C1CC1` [Compound 139, (2S,4R)-1-((S)-2-tert-butyl-4-oxo-4-(piperidin-1-yl)butanoyl)-N-((1R,2S)-1-(cyclopropyl-sulfonylcarbamoyl)-2-vinylcyclopropyl)-4-(4,5-diphenyl-2H-1,2,3-triazol-2-yl)pyrrolidine-2-carboxamide] is lower in EC50: 1000 to 10000 nM for the first, less than 1000 nM for the second.

`C=C[C@@H]1C[C@]1(NC(=O)[C@@H]1C[C@@H](Oc2cc(-c3ccccc3)nc3cc(OC)ccc23)CN1C(=O)[C@@H](CC(=O)N1CCCCC1)C(C)(C)C)C(=O)NS(=O)(=O)C(C)CC` (stereo partly drawn) [Compound 135, (2S,4R)-1-((S)-2-tert-butyl-4-oxo-4-(piperidin-1-yl)butanoyl)-N-((1R,2S)-1-(sec-butylsulfonyl-carbamoyl)-2-vinylcyclopropyl)-4-(7-methoxy-2-phenylquinolin-4-yloxy)pyrrolidine-2-carboxamide] and `C=C[C@@H]1C[C@]1(NC(=O)[C@@H]1C[C@@H](Oc2cc(-c3ccccc3)nc3cc(OC)ccc23)CN1C(=O)[C@@H](CC(=O)N1CCCCC1)C(C)(C)C)C(=O)NS(=O)(=O)CCC` [Compound 136, (2S,4R)-1-((S)-2-tert-butyl-4-oxo-4-(piperidin-1-yl)butanoyl)-4-(7-methoxy-2-phenylquinolin-4-yloxy)-N-((1R,2S)-1-(propylsulfonyl-carbamoyl)-2-vinyl-cyclopropyl)pyr-rolidine-2-carboxamide] cannot be ordered by EC50: less than 1000 nM for the first, less than 1000 nM for the second.

`C=C[C@@H]1C[C@]1(NC(=O)[C@@H]1C[C@@H](Oc2cc(-c3csc(N(C)C)n3)nc3cc(OC)ccc23)CN1C(=O)[C@@H](CC(=O)N1CCCCC1)C(C)(C)C)C(=O)NS(=O)(=O)C1CC1` [Compound 137, (2S,4R)-1-((S)-2-tert-butyl-4-oxo-4-(piperidin-1-yl)butanoyl)-N-((1R,2S)-1-(cyclo-propylsulfonyl-carbamoyl)-2-vinylcyclopropyl)-4-(2-(2-(dimethyl-amino)thiazol-4-yl)-7-methoxyquinolin-4-yloxy)pyrrolidine-2-carboxamide] and `C=C[C@@H]1C[C@]1(NC(=O)[C@@H]1C[C@@H](Oc2cc(-c3csc(N(C)C)n3)nc3cc(OC)ccc23)CN1C(=O)[C@@H](CC(=O)N1CCOCC1)C(C)(C)C)C(=O)NS(=O)(=O)C1CC1` [Compound 138, (2S,4R)-1-((S)-2-tert-butyl-4-morpholino-4-oxobutanoyl)-N-((1R,2S)-1-(cyclo-propylsulfonyl-carbamoyl)-2-vinyl-cyclopropyl)-4-(2-(2-(dimethylamino)thiazol-4-yl)-7-methoxyquinolin-4-yloxy)pyrrolidine-2-carboxamide] cannot be ordered by EC50: less than 1000 nM for the first, less than 1000 nM for the second.

`C=C[C@@H]1C[C@]1(NC(=O)[C@@H]1C[C@@H](Oc2cc(-c3ccccc3)nc3cc(OC)ccc23)CN1C(=O)[C@@H](CC(=O)N1CCCC[C@H]1c1cccnc1)C(C)(C)C)C(=O)NS(=O)(=O)C1CC1` [Compound 140, (2S,4R)-1-((S)-2-tert-butyl-4-oxo-4-((S)-2-(pyridin-3-yl)piperidin-1-yl)butanoyl)-N-((1R,2S)-1-(cyclo-propylsulfonyl-carbamoyl)-2-vinylcyclopropyl)-4-(7-methoxy-2-phenylquinolin-4-yloxy)pyrrolidine-2-carboxamide] and `C=C[C@@H]1C[C@]1(NC(=O)[C@@H]1C[C@@H](Oc2cc(-c3ccccc3)nc3cc(OC)ccc23)CN1C(=O)[C@@H](CC(=O)N1CCCC(=O)C1)C(C)(C)C)C(=O)NS(=O)(=O)C1CC1` [Compound 141, (2S,4R)-1-((S)-2-tert-butyl-4-oxo-4-(3-oxopiperidin-1-yl)butanoyl)-N-((1R,2S)-1-(cyclo-propylsulfonyl-carbamoyl)-2-vinylcyclopropyl)-4-(7-methoxy-2-phenylquinolin-4-yloxy)pyrrolidine-2-carboxamide] cannot be ordered by EC50: less than 1000 nM for the first, less than 1000 nM for the second.

`C=C[C@@H]1C[C@]1(NC(=O)[C@@H]1C[C@@H](Oc2cc(-c3ccccc3)nc3cc(OC)ccc23)CN1C(=O)[C@@H](CC(=O)N1C(C(=O)O)CC2CCCCC21)C(C)(C)C)C(=O)NS(=O)(=O)C1CC1` (stereo partly drawn) [Compound 142, 1-((S)-3-((2S,4R)-2-((1R,2S)-1-(cyclo-propylsulfonyl-carbamoyl)-2-vinyl-cyclopropyl-carbamoyl)-4-(7-methoxy-2-phenylquinolin-4-yloxy)pyrrolidine-1-carbonyl)-4,4-dimethylpentano-yl)octahydro-1H-indole-2-carboxylic acid] and `CC[C@@H]1C[C@]1(NC(=O)[C@@H]1C[C@@H](Oc2cc(-c3ccccc3)nc3cc(OC)ccc23)CN1C(=O)[C@@H](CC(=O)N1CCCCC1)C(C)(C)C)C(=O)NS(=O)(=O)C1CC1` [Compound 149, (2S,4R)-1-((S)-2-tert-butyl-4-oxo-4-(piperidin-1-yl)butanoyl)-N-((1R,2R)-1-(cyclo-propylsulfonyl-carbamoyl)-2-ethylcyclopropyl)-4-(7-methoxy-2-phenylquinolin-4-yloxy)pyrrolidine-2-carboxamide] cannot be ordered by EC50: less than 1000 nM for the first, less than 1000 nM for the second.

First: C=C[C@@H]1C[C@]1(NC(=O)[C@@H]1C[C@@H](Oc2nc(-c3ccccn3)nc3cc(OC)ccc23)CN1C(=O)[C@@H](CC(=O)N1CCCCC1)C(C)(C)C)C(=O)NS(=O)(=O)C1CC1 [Compound 144, (2S,4R)-1-((S)-2-tert-butyl-4-oxo-4-(piperidin-1-yl)butanoyl)-N-((1R,2S)-1-(cyclo-propylsulfonyl-carbamoyl)-2-vinyl-cyclopropyl)-4-(7-methoxy-2-(pyridin-2-yl)quinazolin-4-yloxy)pyrrolidine-2-carboxamide]
Second: C=C[C@@H]1C[C@]1(NC(=O)[C@@H]1C[C@@H](Oc2cc(-c3ccccn3)c3ccc(OC)c(Cl)c3n2)CN1C(=O)[C@@H](CC(=O)N1CCCCC1)C(C)(C)C)C(=O)NS(=O)(=O)C1CC1 [Compound 148, (2S,4R)-1-((S)-2-tert-butyl-4-oxo-4-(piperidin-1-yl)butanoyl)-4-(8-chloro-7-methoxy-4-(pyridin-2-yl)quinolin-2-yloxy)-N-((1R,2S)-1-(cyclopropyl-sulfonylcarbamoyl)-2-vinyl-cyclopropyl)pyr-rolidine-2-carboxamide]
The EC50 of the first is lower: less than 1000 nM for the first, 1000 to 10000 nM for the second.

`C=C[C@@H]1C[C@]1(NC(=O)[C@@H]1C[C@@H](Oc2cc(-c3ccccc3)nc3cc(OC)ccc23)CN1C(=O)[C@@H](CC(=O)N1CCCCC1)C(C)(C)C)C(=O)NS(=O)(=O)C1(CC)CC1` [Compound 145, (2S,4R)-1-((S)-2-tert-butyl-4-oxo-4-(piperidin-1-yl)butanoyl)-N-((1R,2S)-1-(1-ethylcyclopropyl-sulfonylcarbamoyl)-2-vinylcyclopropyl)-4-(7-methoxy-2-phenylquinolin-4-yloxy)pyrrolidine-2-carboxamide] and `C=C[C@@H]1C[C@]1(NC(=O)[C@@H]1C[C@@H](Oc2cc(-c3ccccc3)nc3cc(OC)ccc23)CN1C(=O)[C@@H](CC(=O)N1CCCCC1)C(C)(C)C)C(=O)NS(=O)(=O)C1(CCC)CC1` [Compound 146, (2S,4R)-1-((S)-2-tert-butyl-4-oxo-4-(piperidin-1-yl)butanoyl)-4-(7-methoxy-2-phenylquinolin-4-yloxy)-N-((1R,2S)-1-(1-propylcyclo-propylsulfonyl-carbamoyl)-2-vinyl-cyclopropyl)pyr-rolidine-2-carboxamide] cannot be ordered by EC50: less than 1000 nM for the first, less than 1000 nM for the second.

First: C=C[C@@H]1C[C@]1(NC(=O)[C@@H]1C[C@@H](Oc2cc(-c3ccccc3)nc3cc(OC)ccc23)CN1C(=O)[C@@H](CC(=O)N1CCCCC1)C(C)(C)C)C(=O)NS(=O)(=O)C1(Cc2ccccc2)CC1 [Compound 147, (2S,4R)-N-((1R,2S)-1-(1-benzylcyclo-propylsulfonyl-carbamoyl)-2-vinyl-cyclopropyl)-1-((S)-2-tert-butyl-4-oxo-4-(piperidin-1-yl)butanoyl)-4-(7-methoxy-2-phenylquinolin-4-yloxy)pyrrolidine-2-carboxamide]
Second: C=C[C@@H]1C[C@]1(NC(=O)[C@@H]1C[C@@H](Oc2cc(-c3ccccn3)c3ccc4c(c3n2)CCO4)CN1C(=O)[C@@H](CC(=O)N1CCCCC1)C(C)(C)C)C(=O)NS(=O)(=O)C1CC1 [Compound 150, (2S,4R)-1-((S)-2-tert-butyl-4-oxo-4-(piperidin-1-yl)butanoyl)-N-((1R,2S)-1-(cyclo-propylsulfonyl-carbamoyl)-2-vinylcyclopropyl)-4-(4-(pyridin-2-yl)-8,9-dihydrofuro[2,3-h]quinolin-2-yloxy)pyrrolidine-2-carboxamide]
The EC50 of the first is higher: 1000 to 10000 nM for the first, less than 1000 nM for the second. The second is the more potent here.
